US20160002247A1, “8-SUBSTITUTED IMIDAZOPYRIMIDINONE DERIVATIVE HAVING AUTOTAXIN INHIBITORY ACTIVITY” (THE UNIVERSITY OF TOKYO, priority 2013, published 2016)

Biological target: T1, Human autotaxin enzyme (Homo sapiens, UniProt Q13822)
T1 construct: purchased R&D System
Experiment: Evaluation of autotaxin inhibitor, Method C (Test Example 3): 18:0 Lyso PC, choline assay, Resorufin fluorescence
Format: biochemical
Conditions: Assay Method C (Test Example 3), human autotaxin, 18:0 Lyso PC substrate; read-out: Inhibitory Activity (autotaxin enzyme inhibitory activity, IC50 class)
Method: (Method C) Evaluation of Autotaxin Inhibitor
Solution B containing 100 mM Tris-HCl buffer (pH7.5), 150 mM NaCl, 5 mM MgCl2 and 0.05% Triton X-100 was prepared. Human autotaxin enzyme (purchased from R&D System) was diluted with Solution B, and 2.5 μL of which was added to a solution of test compound in DMSO. Furthermore, 2.5 μl of 200 μM 18:0 Lyso PC (purchased from Avanti Polar Lipids) in Solution B was added and allowed to react at room temperature for 2 hours. After completion of the reaction, 15 μL of the coline assay reagent (100 mM Tris-HCl buffer (pH7.5), 5 mM MgCl2, 77 μg/mL choline oxidase, 10 μg/mL peroxidase, 25 μM 10-acetyl-3,7-dihydroxyphenoxazine and excess autotaxin inhibitor) was added and allowed to react at room temperature for 20 minutes. The fluorescent dye Resorufin, which was produced by the reaction, was detected. The fluorescence was detected using ViewLux (PerkinElmer, Inc.) with an excitation wavelength of 531 nm and a fluorescence wavelength of 598 nm.
The percent inhibition of the test compound was calculated by assuming the sample with no test compound as 0% inhibition and the sample with no enzyme as 100% inhibition, and the percent inhibitions at different concentrations of the test compound were plotted to obtain a concentration-dependent curve.

| IC50 [nM] | Structure (SMILES) |
| --- | --- |
| 10 to 100 | CCCCCn1c(N2CCN(C(C)=O)CC2)cc(=O)n2cc(-c3ccc(Cl)cc3)nc12 [Compound 242] |
| 100 to 1000 | CCCCCn1c(N2CCN(C(=O)N3CCCCC3)CC2)cc(=O)n2cc(-c3ccc(Cl)cc3)nc12 [Compound 291] |
| 100 to 1000 | CCCCCn1c(N2CCNC(=O)C2)cc(=O)n2cc(-c3ccc(Cl)cc3)nc12 [Compound 293] |
| 100 to 1000 | CCCCCn1c(N2CCC(NC(C)=O)CC2)cc(=O)n2cc(-c3ccc(Cl)cc3)nc12 [Compound 294] |
| 100 to 1000 | CCCCCn1c(N2CCC(C(=O)NC)CC2)cc(=O)n2cc(-c3ccc(Cl)cc3)nc12 [Compound 295] |
| 100 to 1000 | CCCCCn1c(N2CCC(NS(C)(=O)=O)CC2)cc(=O)n2cc(-c3ccc(Cl)cc3)nc12 [Compound 298] |
| 10 to 100 | CCCCCn1c(N2CCC(C(=O)N3CCCC3=O)CC2)cc(=O)n2cc(-c3ccc(Cl)cc3)nc12 [Compound 299] |
| 100 to 1000 | CCCCCn1c(N2CCCC(C)C2)cc(=O)n2cc(-c3ccc(Cl)cc3)nc12 (stereo not shown) [Compound 300] |
| 100 to 1000 | CCCCCn1c(N2CCCC(CO)C2)cc(=O)n2cc(-c3ccc(Cl)cc3)nc12 (stereo not shown) [Compound 301] |
| 10 to 100 | CCCCCn1c(N2CCCCC2CCO)cc(=O)n2cc(-c3ccc(Cl)cc3)nc12 (stereo not shown) [Compound 302] |
| > 1000 | CCCCCn1c(N2CC(C)CC(C)C2)cc(=O)n2cc(-c3ccc(Cl)cc3)nc12 (stereo not shown) [Compound 303] |
| 100 to 1000 | CCCCCn1c(N2CCC[C@H]2CO)cc(=O)n2cc(-c3ccc(Cl)cc3)nc12 [Compound 304] |
| > 1000 | CCCCCn1c(N2CCCC(c3ccccc3)C2)cc(=O)n2cc(-c3ccc(Cl)cc3)nc12 (stereo not shown) [Compound 305] |
| > 1000 | CCCCCn1c(N2CCCC(C3CCCCC3)C2)cc(=O)n2cc(-c3ccc(Cl)cc3)nc12 (stereo not shown) [Compound 307] |
| 10 to 100 | CCCCCn1c(N2CCCC2CC(C)C)cc(=O)n2cc(-c3ccc(Cl)cc3)nc12 (stereo not shown) [Compound 308] |
| 10 to 100 | CCCCCn1c(N2CC=CC2)cc(=O)n2cc(-c3ccc(Cl)cc3)nc12 [Compound 309] |
| 100 to 1000 | CCCCCn1c(N2CCC(F)(F)CC2)cc(=O)n2cc(-c3ccc(Cl)cc3)nc12 [Compound 310] |
| 100 to 1000 | CCCCCn1c(N2CCCC(CNC(=O)OC(C)(C)C)C2)cc(=O)n2cc(-c3ccc(Cl)cc3)nc12 (stereo not shown) [Compound 311] |
| 100 to 1000 | CCCCCn1c(N2CCCC(CC(=O)OCC)C2)cc(=O)n2cc(-c3ccc(Cl)cc3)nc12 (stereo not shown) [Compound 315] |
| 10 to 100 | CCCCCn1c(N2CCCC(CC(=O)O)C2)cc(=O)n2cc(-c3ccc(Cl)cc3)nc12 (stereo not shown) [Compound 319] |
| 100 to 1000 | CCCCCn1c(N2CCCC(F)(F)C2)cc(=O)n2cc(-c3ccc(Cl)cc3)nc12 [Compound 321] |
| 100 to 1000 | CCCCCn1c(N2CCC(C(F)(F)F)C2)cc(=O)n2cc(-c3ccc(Cl)cc3)nc12 (stereo not shown) [Compound 323] |
| 100 to 1000 | CCCCCn1c(N2CCC(N3CC(C(=O)OC(C)(C)C)C3)C2)cc(=O)n2cc(-c3ccc(Cl)cc3)nc12 (stereo not shown) [Compound 324] |
| 100 to 1000 | CCCCCn1c(N2CCC(c3ccccc3)C2)cc(=O)n2cc(-c3ccc(Cl)cc3)nc12 (stereo not shown) [Compound 327] |
| 100 to 1000 | CCCCCn1c(N2CCCC(CN)C2)cc(=O)n2cc(-c3ccc(Cl)cc3)nc12 (stereo not shown) [Compound 328] |
| 100 to 1000 | CCCCCn1c(N2CCC3CNCC32)cc(=O)n2cc(-c3ccc(Cl)cc3)nc12 (stereo not shown) [Compound 329] |
| 100 to 1000 | CCCCCn1c(N2CCC3(CNC3)C2)cc(=O)n2cc(-c3ccc(Cl)cc3)nc12 [Compound 330] |
| 100 to 1000 | CCCCCn1c(N2CC3CNCC3C2)cc(=O)n2cc(-c3ccc(Cl)cc3)nc12 (stereo not shown) [Compound 331] |
| 100 to 1000 | CCCCCn1c(N2CCC(C3CNC3)C2)cc(=O)n2cc(-c3ccc(Cl)cc3)nc12 (stereo not shown) [Compound 332] |

More lines, now with the values behind:

| Structure (SMILES) | IC50 [nM] |
| --- | --- |
| Cc1cc(=O)n2cc(-c3ccc(Cl)cc3)nc2n1CCCCCC#N [Compound 98] | 10 to 100 |
| Cc1cc(=O)n2cc(-c3ccc(Cl)cc3)nc2n1Cc1c(F)cccc1F [Compound 119] | 100 to 1000 |
| O=c1cc(Cl)[nH]c2nc([C@H]3CC[C@H](C(F)(F)F)CC3)cn12 [Compound 135, 7-chloro-2-((1r,4r)-4-(trifluoromethyl)cyclohexyl)imidazo[1,2-a]pyrimidin-5(8H)-one] | > 1000 |
| NC(=O)c1ccc(-c2cc(=O)n3cc([C@H]4CC[C@H](C(F)(F)F)CC4)nc3n2CCCC(F)(F)F)cc1 [Compound 136, 4-(5-oxo-8-(4,4,4-trifluorobutyl)-2-((1r,4r)-4-(trifluoromethyl)cyclohexyl)-5,8-dihydroimidazo[1,2-a]pyrimidine-7-yl)benzamide] | 100 to 1000 |
| CCCCCn1c(C)cc(=O)n2cc(C3CCC(C(F)(F)F)CC3)nc12 (stereo not shown) [Compound 137] | 100 to 1000 |
| O=C(O)c1ccc(-c2cc(=O)n3cc([C@H]4CC[C@H](C(F)(F)F)CC4)nc3n2CCCC(F)(F)F)cc1 [Compound 164] | 10 to 100 |
| O=C(NCCN1CC2(COC2)C1)c1ccc(-c2cc(=O)n3cc([C@H]4CC[C@H](C(F)(F)F)CC4)nc3n2CCCC(F)(F)F)cc1 [Compound 165] | 10 to 100 |
| CCCCCn1c(C)cc(=O)n2cc(-c3ccc(C(=O)O)cc3)nc12 [Compound 166] | > 1000 |
| CCCCCn1c(N2CCN(CCC(=O)c3ccc4[nH]c(=O)oc4c3)CC2)cc(=O)n2cc(-c3ccc(Cl)cc3)nc12 [Compound 190] | 10 to 100 |
| CCCCCn1c(NCc2ccc(C(=O)O)cc2)cc(=O)n2cc(-c3ccc(Cl)cc3)nc12 [Compound 192] | 10 to 100 |
| CCCCCn1c(OCc2ccc(C(=O)O)cc2)cc(=O)n2cc(-c3ccc(Cl)cc3)nc12 [Compound 194] | 10 to 100 |
| CCCCCn1c(N(C)Cc2ccc(C(=O)O)cc2)cc(=O)n2cc(-c3ccc(Cl)cc3)nc12 [Compound 197] | 10 to 100 |
| N#CCCCCn1c(NCc2ccc(C(=O)O)cc2)cc(=O)n2cc(-c3ccc(C(F)(F)F)cc3)nc12 [Compound 198] | 10 to 100 |
| CCCCCn1c(C)c(CC(=O)OCC)c(=O)n2cc(-c3ccc(Cl)cc3)nc12 [Compound 202] | 10 to 100 |
| CCCCCn1c(C)c(CCO)c(=O)n2cc(-c3ccc(Cl)cc3)nc12 [Compound 207] | 10 to 100 |
| CCCCCn1c(N(C)Cc2ccccc2)cc(=O)n2cc(-c3ccc(Cl)cc3)nc12 [Compound 219] | 10 to 100 |

| Structure (SMILES) | IC50 [nM] |
| --- | --- |
| N#CCCCCn1c(N2CCC(C(=O)O)CC2)cc(=O)n2cc(-c3ccc(Cl)cc3)nc12 [Compound 282] | 10 to 100 |
| N#CCCCCn1c(N2CCC(C(=O)O)CC2)cc(=O)n2cc(-c3ccc(C#N)cc3)nc12 [Compound 284] | 10 to 100 |
| N#CCCCCn1c(NCc2ccc(C(=O)O)cc2)cc(=O)n2cc(-c3ccc(C#N)cc3)nc12 [Compound 288] | 10 to 100 |
| CCCCCn1c(N2CCN(C(=O)c3ccc([N+](=O)[O-])cc3)CC2)cc(=O)n2cc(-c3ccc(Cl)cc3)nc12 [Compound 292] | 100 to 1000 |
| CCCCCn1c(N2CCN(S(=O)(=O)N3CCOCC3)CC2)cc(=O)n2cc(-c3ccc(Cl)cc3)nc12 [Compound 296] | 100 to 1000 |
| CCCCCn1c(N2CCN(S(=O)(=O)N(C)C)CC2)cc(=O)n2cc(-c3ccc(Cl)cc3)nc12 [Compound 297] | 100 to 1000 |
| CCCCCn1c(N2CCCC2c2ccccc2)cc(=O)n2cc(-c3ccc(Cl)cc3)nc12 (stereo not shown) [Compound 306] | 10 to 100 |
| CCCCCn1c(N2CCC3CN(C(=O)OC(C)(C)C)CC32)cc(=O)n2cc(-c3ccc(Cl)cc3)nc12 (stereo not shown) [Compound 312] | 10 to 100 |
| CCCCCn1c(N2CCC3(CN(C(=O)OC(C)(C)C)C3)C2)cc(=O)n2cc(-c3ccc(Cl)cc3)nc12 [Compound 313] | 100 to 1000 |
| CCCCCn1c(N2CC3CN(C(=O)OC(C)(C)C)CC3C2)cc(=O)n2cc(-c3ccc(Cl)cc3)nc12 (stereo not shown) [Compound 314] | > 1000 |
| CCCCCn1c(N2CCCC(O)(c3ccc(F)cc3)C2)cc(=O)n2cc(-c3ccc(Cl)cc3)nc12 (stereo not shown) [Compound 317] | > 1000 |
| CCCCCn1c(N2CCC[C@H]2C(=O)Nc2ccccc2)cc(=O)n2cc(-c3ccc(Cl)cc3)nc12 [Compound 318] | 100 to 1000 |
| CCCCCn1c(N2CCCC2Cc2ccccc2)cc(=O)n2cc(-c3ccc(Cl)cc3)nc12 (stereo not shown) [Compound 320] | 100 to 1000 |
| CCCCCn1c(N2CCC(CCc3ccccc3)C2)cc(=O)n2cc(-c3ccc(Cl)cc3)nc12 (stereo not shown) [Compound 322] | > 1000 |
| CCCCCn1c(N2CCC(Cc3ccccc3)C2)cc(=O)n2cc(-c3ccc(Cl)cc3)nc12 (stereo not shown) [Compound 325] | 100 to 1000 |
| CCCCCn1c(N2CCC[C@H]2C(=O)NCCC(=O)O)cc(=O)n2cc(-c3ccc(Cl)cc3)nc12 [Compound 326] | < 10 |

Same assay, conditions: Assay Method: Method C (Test Example 3); read-out: Inhibitory Activity (Enzyme Inhibitory Activity, IC50)

| IC50 [nM] | Structure (SMILES) |
| --- | --- |
| 100 to 1000 | CCCC(=O)Cn1c(C)cc(=O)n2cc(-c3ccc(Cl)cc3)nc12 [Compound 41] |
| > 1000 | Cc1cc(=O)n2cc(-c3ccc(Cl)cc3)nc2n1CCCC(C)O (stereo not shown) [Compound 46] |
| > 1000 | CCC(O)CCn1c(C)cc(=O)n2cc(-c3ccc(Cl)cc3)nc12 (stereo not shown) [Compound 47] |
| > 1000 | CCC(=O)CCn1c(C)cc(=O)n2cc(-c3ccc(Cl)cc3)nc12 [Compound 48] |
| 100 to 1000 | Cc1cc(=O)n2cc(-c3ccc(Cl)cc3)nc2n1CCCC(C)F (stereo not shown) [Compound 49] |
| 100 to 1000 | Cc1cc(=O)n2cc(-c3ccc(Cl)cc3)nc2n1CCCCC#N [Compound 63] |
